Source: patent US20040067593A1, “Electron paramagnetic resonance method for diagnosis of active nephritis” (priority 2000, published 2004)

Columns and labels:
[1] = Solubility of spin trap; assay type: physicochemical
[2] = Effect of sulphite on the EPR signal of the DBNBS radical cation (DBNBS reacted with plasma or urine); design: species or system human
Method: The characteristic spectrum of DBNBS-SO3^●− was a 9 line signal with an aN=1.32 mT and aH=0.06 mT (FIG. 8). This was obtained by reacting DBNBS with hydrogen peroxide and horseradish peroxidase. The addition of 10 mM sulphite to the reaction mixture caused the signal to increase by over 100 fold in intensity. The signal could also be obtained by reacting DBNBS with sulphite alone. However, when the DBNBS was reacted with the plasma of patients with renal failure and the urine from a normal individual, only the 3 line signal with an aN=1.32 mT was seen (FIGS. 7 & 9, respectively). The hydrogen hyperfine splitting seen in the spectrum of DBNBS-SO3^●− was absent. […] Therefore, we confirmed that DBNBS-SO3^●− and the DBNBS radical cation generated by renal patients' plasma or normal urine were completely different radicals.
Addition of sulphite to the mixture of DBNBS and plasma or urine decreased the signal height of the DBNBS radical cation. This could affect the determination of the oxidant in biological samples if there was sulphite contamination in the DBNBS preparation or endogenous sulphite in the biological sample itself. Therefore the dose response effect on addition of sulphite to the reaction mixture was investigated. […]

Row | Structure (SMILES) | solubility compared with DBNBS [1] | reduction in the signal height of the DBNBS radical cation ([2]; 0.08 mM of sulphite in the reaction mixture) [%] | reduction in the signal height of the DBNBS radical cation ([2]; final concentration of 0.4 mM sulphite in the reaction mixture) [%]
1 | O=Nc1c(Cl)cc(S(=O)(=O)O)cc1Cl [DCNBS, 3,5-dichloro-4-nitrosobenzene sulphonate] | better solubility |  | 
2 | O=S([O-])[O-].[K+].[K+] [sulphite, dipotassium sulphite] |  | 1.4 | 6.1
